Test results published in patent publication US4954502A, “1-indolyalkyl-4-(substituted-pyridinyl)piperazines” (Bristol-Myers Squibb Company, priority 1989, dated 1990).
Structures can show the parent of a compound that is named as a salt.

biological target: T1, serotonin uptake (Rattus norvegicus, UniProt P31652); experiment: Inhibition of serotonin uptake (in vitro): inhibition of synaptosomal reuptake of tritiated serotonin; format: biochemical
T1 construct: from tissue
Procedure: Determination of endogenous monoaminergic re-uptake inhibition values both for serotonin and norepinephrine was accomplished using test methods described by P. Skolnick, et al.. Br. J. Pharmacology (1985), 86, pp. 637-644; with only minor modifications. In vitro IC50 (nM) test values were determined for representative compounds of Formula I based on their inhibition of synaptosomal reuptake of tritiated serotonin. Test data IC50 values lower than 500 nM are considered to reflect activity as an inhibitor of serotonin reuptake. Compounds with Ic50 values lower than 1OO nM comprise preferred compounds.

T1 sequence (P31652 whole entry): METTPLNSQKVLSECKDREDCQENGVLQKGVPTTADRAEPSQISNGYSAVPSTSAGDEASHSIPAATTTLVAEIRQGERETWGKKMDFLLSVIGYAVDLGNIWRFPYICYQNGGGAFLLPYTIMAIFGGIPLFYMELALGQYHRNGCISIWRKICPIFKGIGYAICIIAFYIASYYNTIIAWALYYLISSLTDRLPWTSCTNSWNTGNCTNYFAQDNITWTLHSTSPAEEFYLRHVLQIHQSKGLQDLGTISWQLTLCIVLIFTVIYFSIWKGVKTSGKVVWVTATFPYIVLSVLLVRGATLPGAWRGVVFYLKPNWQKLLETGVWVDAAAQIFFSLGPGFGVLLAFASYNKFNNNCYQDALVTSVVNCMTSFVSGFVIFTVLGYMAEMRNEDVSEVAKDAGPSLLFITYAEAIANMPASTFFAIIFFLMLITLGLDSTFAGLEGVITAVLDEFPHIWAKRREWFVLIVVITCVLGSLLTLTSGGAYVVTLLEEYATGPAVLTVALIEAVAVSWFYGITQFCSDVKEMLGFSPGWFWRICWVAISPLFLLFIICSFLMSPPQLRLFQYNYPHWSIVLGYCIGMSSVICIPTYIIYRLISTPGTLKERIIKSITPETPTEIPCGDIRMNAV

Q: Clc1cccc(N2CCN(CCCc3c[nH]c4ccccc34)CC2)n1 [Example 19, 1-(6-Chloro-2-pyridinyl)-4-[3-(1H-indol-3-yl)propyl]piperazine hydrochloride] was tested. Which IC50 did it give?
A: 0.098 µM

Q: Which IC50 does the source give for Cn1cc(CCCN2CCN(c3cccc(Cl)n3)CC2)c2ccccc21 [Example 51] here?
A: 0.086 µM

Q: How did the IC50 turn out when COc1cccnc1N1C[C@@H]2C[C@H]1CN2CCc1c[nH]c2ccccc12 [Example 27] was run?
A: 0.0125 µM

Q: Clc1ccc2[nH]cc(CCN3CCN(c4cccc(Cl)n4)CC3)c2c1 [Example 57] was tested. Which IC50 did it give?
A: 0.166 µM

Q: How did the IC50 turn out when FC(F)(F)c1cccnc1N1CCN(CCc2c[nH]c3ccccc23)CC1 [Example 17, 1-[2-(1H-indol-3-yl)-ethyl]-4-[3-trifluoromethyl-2-pyridinyl]piperazine hydrochloride] was run?
A: 0.037 µM

Q: Which IC50 does the source give for COc1cccnc1N1CCN(CCCc2c[nH]c3ccccc23)CC1 [Example 20, 1-[3-(1H-indol-3-yl)-propyl]-4-[3-methoxy-2-pyridinyl]piperazine dihydrochloride hydrate] here?
A: 0.0011 µM

Q: How did the IC50 turn out when COc1cccnc1N1CCN(CCc2c[nH]c3ccccc23)CC1 [Example 18, 1-[2-(1H-indol-3-yl)-ethyl]-4-[3-methoxy-2-pyridinyl]-piperazine] was run?
A: 0.013 µM

Q: For COc1ccc2[nH]cc(C3=CCC(N4CCN(c5cccc(Cl)n5)CC4)CC3)c2c1 (stereo not shown) [Example 23, 3-[4-[4-(6-Chloro-2-pvridinyl)-1-piperazinyl]-1cyclohexen-1-yl]-5-methoxy-1H-indole], which IC50 is on record?
A: 0.099 µM

Q: Which IC50 does the source give for COc1ccc2[nH]cc(CCN3CCN(c4cccc(C(F)(F)F)n4)CC3)c2c1 [Example 44] here?
A: 0.56 µM

Q: Which IC50 does the source give for COc1cccnc1N1CCN(CCc2c[nH]c3ccccc23)C(C)C1 (stereo not shown) [Example 64] here?
A: < 0.001 µM

Q: Which IC50 does the source give for COc1cccnc1N1C[C@H]2C[C@@H]1CN2CCc1c[nH]c2ccccc12 [Example 26] here?
A: 0.106 µM

Q: How did the IC50 turn out when FC(F)(F)c1cccc(N2CCN(CCc3c[nH]c4ccccc34)CC2)n1 [Example 15, 1-[2-(1H-indol-3-yl)-ethyl]-4-6-trifluoromethyl-2-pyridinyl]piperazine hydrochloride] was run?
A: 0.073 µM

Q: With COc1cccnc1N1C[C@@H]2C[C@H]1CN2CCCc1c[nH]c2ccccc12 [Example 34] as the compound, how does the IC50 read?
A: 0.0056 µM

Q: Which IC50 does the source give for FC(F)(F)c1ccnc(N2CCN(CCc3c[nH]c4ccccc34)CC2)c1 [Example 37] here?
A: 0.386 µM

Q: Which IC50 does the source give for COc1ccc(Cl)nc1N1CCN(CCCc2c[nH]c3ccccc23)CC1 [Example 71] here?
A: 0.0049 µM

Q: With CC(Cc1c[nH]c2ccccc12)N1CCN(c2cccc(Cl)n2)CC1 (stereo not shown) [Example 36, 3-[2-[4-(6-Chloro-2-pyridyl)-1-piperazinyl]propyl]-indole] as the compound, how does the IC50 read?
A: 0.075 µM

Q: For FC(F)(F)c1cccc(N2CCN(CCc3c[nH]c4ccc(Cl)cc34)CC2)n1 [Example 63], which IC50 is on record?
A: 0.437 µM

Q: Clc1cccc(N2CCN(CCCCc3c[nH]c4ccccc34)CC2)n1 [Example 31] was tested. Which IC50 did it give?
A: 0.027 µM

Q: Which IC50 does the source give for COc1cccnc1N1CCN(CCCc2cn(C)c3ccccc23)CC1 [Example 50] here?
A: 0.0037 µM

Q: Which IC50 does the source give for COc1cccnc1N1C[C@H]2C[C@@H]1CN2CCCc1c[nH]c2ccccc12 [Example 35] here?
A: 0.152 µM

Q: Which IC50 does the source give for Cn1cc(CCN2CCN(c3cccc(Cl)n3)CC2)c2ccccc21 [Example 55] here?
A: 0.126 µM

Q: With FC(F)(F)c1cccc(N2CCN(CCCCc3c[nH]c4ccccc34)CC2)n1 [Example 32] as the compound, how does the IC50 read?
A: 0.259 µM

Q: COc1cccnc1N1CCN(CCc2c[nH]c3ccccc23)C(C)C1 (stereo not shown) [Example 25] was tested. Which IC50 did it give?
A: 0.0086 µM

Q: For COc1cc2[nH]cc(CCN3CCN(c4cccc(Cl)n4)CC3)c2cc1OC [Example 48], which IC50 is on record?
A: 0.127 µM

Q: FC(F)(F)c1ccnc(N2CCN(CCCc3c[nH]c4ccccc34)CC2)c1 [Example 33] was tested. Which IC50 did it give?
A: 0.105 µM

Q: Which IC50 does the source give for COc1ccc2c(CCN3CCN(c4cccc(Cl)n4)CC3)c[nH]c2c1 [Example 65] here?
A: 0.134 µM

Q: With COc1cccnc1N1CCN(CCc2c[nH]c3ccc(F)cc23)CC1 [Example 39] as the compound, how does the IC50 read?
A: 0.0002 µM

Q: Clc1cccc(N2CCN(CCc3c[nH]c4ccccc34)CC2)n1 [Example 14, 4-[6-Chloro-2-pyridinyl]-1-[2-(1H-indol-3-yl)-ethyl]piperazine hydrochloride] was tested. Which IC50 did it give?
A: 0.074 µM

Q: With COc1cccnc1N1CCN(CCc2c[nH]c3ccc(Cl)cc23)CC1 [Example 56] as the compound, how does the IC50 read?
A: < 0.001 µM

Q: How did the IC50 turn out when COc1cccnc1N1CCN(CCCCc2c[nH]c3ccccc23)CC1 [Example 21, 1-[4-(1H-indol-3-yl)butyl]-4-(3-methoxy-2-pyridine-1)piperazine dihydrochloride] was run?
A: 0.058 µM

Q: FC(F)(F)c1cccc(N2CCN(CCCc3c[nH]c4ccccc34)CC2)n1 [Example 30] was tested. Which IC50 did it give?
A: 0.192 µM

Q: COc1ccc2c(CCN3CCN(c4ncccc4OC)CC3)c[nH]c2c1 [Example 66] was tested. Which IC50 did it give?
A: 0.0359 µM

Q: How did the IC50 turn out when Clc1cccc(N2CCN(C3CC=C(c4c[nH]c5ccccc45)CC3)CC2)n1 (stereo not shown) [Example 45] was run?
A: 0.1 µM

Q: Which IC50 does the source give for Fc1ccc2[nH]cc(C3=CCC(N4CCN(c5cccc(Cl)n5)CC4)CC3)c2c1 (stereo not shown) [Example 70] here?
A: 0.141 µM

Q: Which IC50 does the source give for COc1ccc2[nH]cc(CCN3CCN(c4cccc(Cl)n4)CC3)c2c1 [Example 40] here?
A: 0.177 µM

Q: For CC(CCc1c[nH]c2ccccc12)N1CCN(c2cccc(Cl)n2)CC1 (stereo not shown) [Example 67], which IC50 is on record?
A: 0.142 µM

Q: With CC1CN(c2cccc(Cl)n2)CCN1CCCc1c[nH]c2ccccc12 (stereo not shown) [Example 72] as the compound, how does the IC50 read?
A: 0.0187 µM

Q: Clc1ccc(N2CCN(CCc3c[nH]c4ccccc34)CC2)nc1 [Example 54] was tested. Which IC50 did it give?
A: 0.03 µM

Q: With COc1cccnc1N1CCN(CCc2cn(C)c3ccccc23)CC1 [Example 47] as the compound, how does the IC50 read?
A: 0.024 µM

Q: How did the IC50 turn out when Clc1cccc(N2C[C@@H]3C[C@H]2CN3CCc2c[nH]c3ccccc23)n1 [Example 28] was run?
A: 0.077 µM

Q: Which IC50 does the source give for Fc1ccc2[nH]cc(CCN3CCN(c4cccc(Cl)n4)CC3)c2c1 [Example 41] here?
A: 0.0028 µM

Q: How did the IC50 turn out when COc1cccc(N2CCN(CCc3c[nH]c4ccccc34)CC2)n1 [Example 16, 1-[2-(1H-indol-3-yl)-ethyl]-4[6-methoxy-2-pyridinyl-piperazine hydrate] was run?
A: 0.088 µM

Q: COc1ccc2[nH]cc(CCN3CCN(c4ncccc4OC)CC3)c2c1 [Example 38] was tested. Which IC50 did it give?
A: 0.011 µM

Q: For COc1cccnc1N1CCN(C(C)CCc2c[nH]c3ccccc23)CC1 (stereo not shown) [Example 68], which IC50 is on record?
A: 0.0367 µM

Q: With Clc1cccc(N2C[C@H]3C[C@@H]2CN3CCc2c[nH]c3ccccc23)n1 [Example 29] as the compound, how does the IC50 read?
A: 0.106 µM

Q: Which IC50 does the source give for Fc1ccc2[nH]cc(CCN3CCN(c4cccc(C(F)(F)F)n4)CC3)c2c1 [Example 43] here?
A: 0.073 µM

Q: How did the IC50 turn out when COc1cc2[nH]cc(CCN3CCN(c4cccc(C(F)(F)F)n4)CC3)c2cc1OC [Example 69] was run?
A: 0.479 µM

Q: How did the IC50 turn out when Clc1cccnc1N1CCN(CCc2c[nH]c3ccccc23)CC1 [Example 42] was run?
A: 0.52 µM

Q: For NC(=O)c1ccc2[nH]cc(C3=CCC(N4CCN(c5cccc(Cl)n5)CC4)CC3)c2c1 (stereo not shown) [Example 46], which IC50 is on record?
A: 0.027 µM
